{
  "source": "patent US5389613A",
  "about": "“Method of treating prostate adenocarcinoma, prostate benign hypertrophia and endometriosis” (Roussel Uclaf, priority 1979, dated 1995)",
  "key": {"[1]": {"system": "testicular steroidogensis", "experiment": "Inhibitory activity against testicular steroidogenesis in men in good health (seric LH, FSH and steroids by radioimmunoassay)", "type": "in vivo", "experimental": "The said product was administered intranasally at a dose of 500 μg in a few drops of distilled water at 8 A.M. on the third day of the test. For 2 days prior to the treatment and for 6 days after the treatment, samples of blood were taken daily at 8 A.M., 3 P.M. and 10 P.M. On the day of administration of the LH-RH agonist, blood samples were taken at 11 A.M. and 6 P.M.\nThe seric concentrations of LH and FSH were measured by radioimmuno-logic dosages with double antibodies and the antibodies for measuring LH and FSH were furnished by the National Pituitary Agency of N.I.H. in Bethesda, Md. The seric concentrations of steroids was measured by radioimmuno-logic dosages in which one ml of serum was extracted with ether and the steroids were separated on a LH-20 column before measuring with radioimmuno-logic dosages. The radioimmuno-logic dosage results were determined by a program derived from model II of Rodbard et al [Second Karolinska Symposium on Research Methods in Reproductive Endroerinology, Diczfalusky Editor, Copenhague (1970), p. 79-103]. The statistical significance was determined by the \"multiple level test\" of Duncan-Kramer [Kramer, Biometrics, Vol 12 (1956), p. 307]. The results are shown in the graphs on sheet 1 of the Figures filed herewith."}, "[2]": {"system": "testicular steriodogenosis", "experiment": "Inhibitory activity on testicular steroidogenesis in a patient with prostate cancer (plasmatic steroids)", "type": "in vivo, human", "details": "500 μg intranasally twice a day", "from_the_text": "The results are reported in the graphs of sheet 2 of the Figures."}, "ovarian steroidogenosis": {"system": "ovarian steroidogenosis", "experiment": "Inhibitory activity on ovarian steroidogenesis in women (seric LH, FSH, progesterone, estradiol)", "type": "in vivo", "details": "for reduction of seric levels of progesterone compared to the controls: typical subject (sheet 3), 500 μg intranasal at 8 A.M. and 5 P.M.", "experimental": "The study was conducted for 6 consecutive cycles consisting of 2 pretreatment cycles, 2 treatment cycles and 2 post-treatment cycles. […] Daily blood samples were taken between 4 and 6 P.M. to measure seric levels of LH, FSH, progesterone and estradiol which were determined by radioimmuno-logic tests with double antibodies. The antibodies to measure LH and FSH were furnished by the National Pituitory Agency of N.I.H. of Bethesda, Md.\nEstradiol and progesterone were measured with highly specific antibodies developed against 7-(0-carboxymethyl)-oxime of estradiol and 12-(0-carboxymethyl)-oxime of progesterone, respectively [3H] 17β-estradiol and ^125 I-progesterone -12-[0-carboxymethyl)-oxime] used as tracers. The serum was extracted with benzene and the steroids were separated with a LH-20 column before the determination. The radioimmunological results were exploited by the program derived from model II of Rodbard and Lewald as in Example 1 and the statistical significance was measured by the multiple level test of Ducan-Kramer of Example 1. The results are shown in the graphs of sheets 3 to 5 of the Figures."}, "[3]": {"details": "intranasal 500 μg, men, 3rd day following administration"}},
  "note": "Entries after “also recorded” stand apart in the source; their conditions may differ.",
  "data": [
    {"smiles": "CCNC(=O)[C@@H]1CCCN1C(=O)[C@H](CCCNC(=N)N)NC(=O)[C@H](CC(C)C)NC(=O)[C@@H](COC(C)(C)C)NC(=O)[C@H](Cc1ccc(O)cc1)NC(=O)[C@H](CO)NC(=O)[C@H](Cc1c[nH]c2ccccc12)NC(=O)[C@H](Cc1c[nH]cn1)NC(=O)[C@@H]1CCC(=O)N1", "note": "[D Ser (Tbu)^6 of Gly^10 LH-RH ethylamide, [D Ser (Tbu)^6 des.Gly NH2^10] LH-RH ethylamide]", "values": [
      {"measurement": "effect on testicular steroidogenesis in man", "setting": "[1]; intranasal 500 μg, men", "value": "inhibition of testicular steroidogenesis"},
      {"measurement": "seric concentration of 17-OH-progesterone relative to initial control values", "setting": "[1]; [3]", "value": 40, "unit": "%"},
      {"measurement": "seric concentration of testosterone relative to initial control values", "setting": "[1]; [3]", "value": 50, "unit": "%"},
      {"measurement": "LH and FSH plasmatic levels", "setting": "[1]; intranasal 500 μg, men, day of administration", "value": "increase"},
      {"measurement": "seric concentration of pregnenolone, 17-OH-pregnenolone, progesterone, 17-OH-progesterone, Δ5-androstene-3β,17β-diol and testosterone", "setting": "[1]; intranasal 500 μg, men, on the day of treatment", "value": "increased"},
      {"measurement": "level of testosterone/steroids on the fourth day after administration", "setting": "[1]; single intranasal dose of 500 μg, fourth day after administration", "value": "returned to normal; also recorded: return to normal levels"},
      {"measurement": "duration of the drop of seric levels of testicular steroids (testosterone and its precursors)", "setting": "[1]; single intranasal dose of 500 μg, human", "value": 3, "unit": "days"},
      {"measurement": "androgenic steroids (plasmatic)", "setting": "[2]", "value": "diminution"},
      {"measurement": "level of testosterone", "setting": "[2]; two weeks of treatment", "value": "stabilized at a very low level"},
      {"measurement": "level of progesterone, pretreatment cycles as base of 100%", "setting": "ovarian steroidogenosis; 12 cycles of post-treatment", "value": 99, "unit": "%"},
      {"measurement": "level of progesterone, pretreatment cycles as base of 100%", "setting": "ovarian steroidogenosis; 12 cycles of treatment", "value": 46, "unit": "%"},
      {"measurement": "level of progesterone reduced as compared to the controls", "setting": "ovarian steroidogenosis; 12 cycles of treatment (sheet 5), scale 13 to 127%", "value": 46, "unit": "%"},
      {"measurement": "reduction of seric levels of progesterone compared to the controls", "setting": "ovarian steroidogenosis; first cycle of treatment", "value": 13, "unit": "%"},
      {"measurement": "reduction of seric levels of progesterone compared to the controls", "setting": "ovarian steroidogenosis; second cycle of treatment", "value": 34, "unit": "%"}
    ]}
  ]
}
